Assay results taken from the kinase profiling compilation of Christmann-Franck et al. (2016).

Legend:
Test in all cases: radiometric filter-binding kinase assay, Kinase HotSpot
Conditions in all cases: compound 0.5 µM; ATP 10 µM
PRKD3 (human) = PRKD3 (human) (UniProt O94806)
ADRBK1 (human) = ADRBK1 (human) (UniProt P25098)
CLK1 (human) = CLK1 (human) (UniProt P49759)
MAPKAPK3 (human) = MAPKAPK3 (human) (UniProt Q16644)
STK25 (human) = STK25 (human) (UniProt O00506)
RPS6KA4 KD2 (human) = RPS6KA4 KD2 (human) (UniProt O75676)
MAPK10 (human) = MAPK10 (human) (UniProt P53779)
AURKB (human) = AURKB (human) (UniProt Q96GD4)
NTRK1 (human) = NTRK1 (human) (UniProt P04629)
EPHA7 (human) = EPHA7 (human) (UniProt Q15375)
PTK2 (human) = PTK2 (human) (UniProt Q05397)
RPS6KA5 KD2 (human) = RPS6KA5 KD2 (human) (UniProt O75582)
TAOK1 (human) = TAOK1 (human) (UniProt Q7L7X3)
YES1 (human) = YES1 (human) (UniProt P07947)
ERBB2 (human) = ERBB2 (human) (UniProt P04626)
MAP3K10 (human) = MAP3K10 (human) (UniProt Q02779)
ULK1 (human) = ULK1 (human) (UniProt O75385)
MAP3K7 TAB1 (human) = MAP3K7 TAB1 (human) (UniProt O43318+Q15750)
CDK2 CCNE1 (human) = CDK2 CCNE1 (human) (UniProt P24941+P24864)
PIM1 (human) = PIM1 (human) (UniProt P11309)
CLK4 (human) = CLK4 (human) (UniProt Q9HAZ1)
MAP4K5 (human) = MAP4K5 (human) (UniProt Q9Y4K4)
RPS6KA6 KD1 KD2 (human) = RPS6KA6 KD1 KD2 (human) (UniProt Q9UK32)
PTK6 (human) = PTK6 (human) (UniProt Q13882)
PRKCE (human) = PRKCE (human) (UniProt Q02156)
EPHB3 (human) = EPHB3 (human) (UniProt P54753)
MET (human) = MET (human) (UniProt P08581)
MAPKAPK2 (human) = MAPKAPK2 (human) (UniProt P49137)
PRKCG (human) = PRKCG (human) (UniProt P05129)
PRKCB2 (human) = PRKCB2 (human) (UniProt P05771)
PASK (human) = PASK (human) (UniProt Q96RG2)
RET (human) = RET (human) (UniProt P07949)
CHUK (human) = CHUK (human) (UniProt O15111)
IGF1R (human) = IGF1R (human) (UniProt P08069)
MAP3K8 (human) = MAP3K8 (human) (UniProt P41279)
EPHB4 (human) = EPHB4 (human) (UniProt P54760)
KDR (human) = KDR (human) (UniProt P35968)
IRAK4 (human) = IRAK4 (human) (UniProt Q9NWZ3)
RPS6KA1 KD1 KD2 (human) = RPS6KA1 KD1 KD2 (human) (UniProt Q15418)
[1] = test system: PRKCQ (human), Q04759 [P330L]
CAMK2A (human) = CAMK2A (human) (UniProt Q9UQM7)
SRPK1 (human) = SRPK1 (human) (UniProt Q96SB4)

CLK1 (human), sequence (P49759 whole entry, looked up): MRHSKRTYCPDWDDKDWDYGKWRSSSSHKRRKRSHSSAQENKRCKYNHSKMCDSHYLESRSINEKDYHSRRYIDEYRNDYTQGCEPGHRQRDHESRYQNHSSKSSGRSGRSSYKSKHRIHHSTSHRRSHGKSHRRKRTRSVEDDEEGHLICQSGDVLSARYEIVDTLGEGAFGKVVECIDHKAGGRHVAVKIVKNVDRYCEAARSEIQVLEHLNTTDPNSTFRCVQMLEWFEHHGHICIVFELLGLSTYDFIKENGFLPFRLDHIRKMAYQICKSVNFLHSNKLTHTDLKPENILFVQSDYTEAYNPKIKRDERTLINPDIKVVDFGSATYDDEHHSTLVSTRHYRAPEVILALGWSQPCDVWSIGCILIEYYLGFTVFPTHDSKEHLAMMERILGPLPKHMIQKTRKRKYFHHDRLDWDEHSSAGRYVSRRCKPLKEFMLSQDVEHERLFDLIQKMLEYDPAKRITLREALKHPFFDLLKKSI
MAPK10 (human), sequence (P53779 whole entry, looked up): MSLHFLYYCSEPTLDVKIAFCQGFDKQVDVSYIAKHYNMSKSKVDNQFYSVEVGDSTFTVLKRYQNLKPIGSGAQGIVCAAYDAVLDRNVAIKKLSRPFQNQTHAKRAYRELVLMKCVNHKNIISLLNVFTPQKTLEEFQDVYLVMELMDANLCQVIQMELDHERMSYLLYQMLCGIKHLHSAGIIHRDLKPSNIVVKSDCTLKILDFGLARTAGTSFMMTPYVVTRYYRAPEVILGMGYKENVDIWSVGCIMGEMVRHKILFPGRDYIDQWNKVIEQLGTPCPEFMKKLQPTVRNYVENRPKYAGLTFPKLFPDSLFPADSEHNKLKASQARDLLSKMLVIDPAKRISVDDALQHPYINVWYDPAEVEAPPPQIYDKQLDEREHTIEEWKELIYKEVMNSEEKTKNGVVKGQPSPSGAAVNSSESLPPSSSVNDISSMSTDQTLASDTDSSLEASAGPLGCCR
RPS6KA5 KD2 (human), sequence (O75582 whole entry, looked up): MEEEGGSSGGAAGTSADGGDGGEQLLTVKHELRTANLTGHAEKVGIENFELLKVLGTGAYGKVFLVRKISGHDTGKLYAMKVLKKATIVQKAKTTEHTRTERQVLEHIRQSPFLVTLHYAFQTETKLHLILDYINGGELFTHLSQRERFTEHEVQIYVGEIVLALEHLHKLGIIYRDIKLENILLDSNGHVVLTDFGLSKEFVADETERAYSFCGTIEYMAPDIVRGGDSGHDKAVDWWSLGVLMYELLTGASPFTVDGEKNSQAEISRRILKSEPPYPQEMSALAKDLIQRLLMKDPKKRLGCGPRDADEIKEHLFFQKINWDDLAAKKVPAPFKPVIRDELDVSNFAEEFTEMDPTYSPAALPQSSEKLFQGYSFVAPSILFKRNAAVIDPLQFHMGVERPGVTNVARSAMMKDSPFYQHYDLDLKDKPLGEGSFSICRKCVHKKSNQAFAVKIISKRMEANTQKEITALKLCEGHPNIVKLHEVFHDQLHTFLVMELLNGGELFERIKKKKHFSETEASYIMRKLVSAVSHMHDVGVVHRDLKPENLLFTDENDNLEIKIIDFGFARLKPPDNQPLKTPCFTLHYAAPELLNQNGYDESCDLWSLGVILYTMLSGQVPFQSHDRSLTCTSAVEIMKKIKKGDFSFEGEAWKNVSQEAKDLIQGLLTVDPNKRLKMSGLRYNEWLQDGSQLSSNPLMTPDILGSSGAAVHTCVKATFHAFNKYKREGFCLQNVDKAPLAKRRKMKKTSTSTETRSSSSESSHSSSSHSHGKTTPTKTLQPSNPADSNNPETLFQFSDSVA
STK25 (human), sequence (O00506 whole entry, looked up): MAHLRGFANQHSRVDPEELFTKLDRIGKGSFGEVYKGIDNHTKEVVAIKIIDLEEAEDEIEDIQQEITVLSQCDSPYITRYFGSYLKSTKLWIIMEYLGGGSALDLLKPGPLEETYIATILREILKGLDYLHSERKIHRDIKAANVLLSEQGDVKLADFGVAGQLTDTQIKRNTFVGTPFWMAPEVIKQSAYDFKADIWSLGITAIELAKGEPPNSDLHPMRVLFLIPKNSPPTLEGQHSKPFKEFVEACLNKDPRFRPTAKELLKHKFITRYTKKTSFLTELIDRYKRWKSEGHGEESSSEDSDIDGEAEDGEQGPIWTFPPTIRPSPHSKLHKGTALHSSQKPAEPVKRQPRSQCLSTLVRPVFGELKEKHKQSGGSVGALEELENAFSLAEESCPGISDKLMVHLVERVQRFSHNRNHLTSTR
EPHB4 (human), sequence (P54760 whole entry, looked up): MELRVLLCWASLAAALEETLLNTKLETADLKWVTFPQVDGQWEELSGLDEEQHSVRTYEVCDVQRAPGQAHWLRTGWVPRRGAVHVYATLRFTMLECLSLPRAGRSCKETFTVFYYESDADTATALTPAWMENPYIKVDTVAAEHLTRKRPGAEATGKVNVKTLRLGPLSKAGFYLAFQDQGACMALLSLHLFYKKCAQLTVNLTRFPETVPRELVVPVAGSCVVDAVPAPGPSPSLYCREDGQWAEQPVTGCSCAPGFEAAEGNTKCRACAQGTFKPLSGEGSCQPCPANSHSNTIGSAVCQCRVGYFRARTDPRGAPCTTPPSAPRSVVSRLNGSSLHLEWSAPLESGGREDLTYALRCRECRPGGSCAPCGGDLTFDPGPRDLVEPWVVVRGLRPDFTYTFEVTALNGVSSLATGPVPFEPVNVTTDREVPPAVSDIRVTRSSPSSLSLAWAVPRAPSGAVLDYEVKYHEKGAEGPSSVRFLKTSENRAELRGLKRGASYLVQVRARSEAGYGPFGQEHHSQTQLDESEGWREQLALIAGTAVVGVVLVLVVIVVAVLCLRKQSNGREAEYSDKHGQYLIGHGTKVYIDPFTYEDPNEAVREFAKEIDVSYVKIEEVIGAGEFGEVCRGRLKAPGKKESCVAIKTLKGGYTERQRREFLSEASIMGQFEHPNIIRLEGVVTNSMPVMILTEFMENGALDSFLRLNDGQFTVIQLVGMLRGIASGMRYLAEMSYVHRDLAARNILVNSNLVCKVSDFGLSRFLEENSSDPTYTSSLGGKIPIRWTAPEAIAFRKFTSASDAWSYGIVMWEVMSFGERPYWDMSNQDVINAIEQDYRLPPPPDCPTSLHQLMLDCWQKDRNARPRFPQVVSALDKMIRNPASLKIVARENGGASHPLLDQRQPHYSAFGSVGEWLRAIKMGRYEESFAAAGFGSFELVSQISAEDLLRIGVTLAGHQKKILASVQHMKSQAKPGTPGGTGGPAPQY
RPS6KA4 KD2 (human), sequence (O75676 whole entry, looked up): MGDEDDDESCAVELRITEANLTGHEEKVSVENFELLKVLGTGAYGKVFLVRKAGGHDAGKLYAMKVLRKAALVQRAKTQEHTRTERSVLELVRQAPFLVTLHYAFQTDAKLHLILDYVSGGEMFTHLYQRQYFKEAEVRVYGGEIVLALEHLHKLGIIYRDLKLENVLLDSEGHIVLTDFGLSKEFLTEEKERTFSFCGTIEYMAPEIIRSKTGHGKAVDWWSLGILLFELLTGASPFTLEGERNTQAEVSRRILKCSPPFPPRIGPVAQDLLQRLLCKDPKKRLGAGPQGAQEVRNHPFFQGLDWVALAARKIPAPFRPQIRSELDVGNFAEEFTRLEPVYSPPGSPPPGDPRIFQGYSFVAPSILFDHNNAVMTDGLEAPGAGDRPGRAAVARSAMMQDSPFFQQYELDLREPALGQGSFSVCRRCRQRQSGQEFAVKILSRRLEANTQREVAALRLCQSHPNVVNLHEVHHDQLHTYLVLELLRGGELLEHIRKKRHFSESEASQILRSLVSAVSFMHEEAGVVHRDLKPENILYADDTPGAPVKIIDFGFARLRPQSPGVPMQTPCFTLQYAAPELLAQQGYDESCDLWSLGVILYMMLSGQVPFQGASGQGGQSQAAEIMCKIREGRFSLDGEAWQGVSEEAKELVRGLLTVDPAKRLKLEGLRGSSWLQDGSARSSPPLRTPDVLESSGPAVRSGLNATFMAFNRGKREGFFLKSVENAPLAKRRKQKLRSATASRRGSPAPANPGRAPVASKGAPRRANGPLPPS
MAP4K5 (human), sequence (Q9Y4K4 whole entry, looked up): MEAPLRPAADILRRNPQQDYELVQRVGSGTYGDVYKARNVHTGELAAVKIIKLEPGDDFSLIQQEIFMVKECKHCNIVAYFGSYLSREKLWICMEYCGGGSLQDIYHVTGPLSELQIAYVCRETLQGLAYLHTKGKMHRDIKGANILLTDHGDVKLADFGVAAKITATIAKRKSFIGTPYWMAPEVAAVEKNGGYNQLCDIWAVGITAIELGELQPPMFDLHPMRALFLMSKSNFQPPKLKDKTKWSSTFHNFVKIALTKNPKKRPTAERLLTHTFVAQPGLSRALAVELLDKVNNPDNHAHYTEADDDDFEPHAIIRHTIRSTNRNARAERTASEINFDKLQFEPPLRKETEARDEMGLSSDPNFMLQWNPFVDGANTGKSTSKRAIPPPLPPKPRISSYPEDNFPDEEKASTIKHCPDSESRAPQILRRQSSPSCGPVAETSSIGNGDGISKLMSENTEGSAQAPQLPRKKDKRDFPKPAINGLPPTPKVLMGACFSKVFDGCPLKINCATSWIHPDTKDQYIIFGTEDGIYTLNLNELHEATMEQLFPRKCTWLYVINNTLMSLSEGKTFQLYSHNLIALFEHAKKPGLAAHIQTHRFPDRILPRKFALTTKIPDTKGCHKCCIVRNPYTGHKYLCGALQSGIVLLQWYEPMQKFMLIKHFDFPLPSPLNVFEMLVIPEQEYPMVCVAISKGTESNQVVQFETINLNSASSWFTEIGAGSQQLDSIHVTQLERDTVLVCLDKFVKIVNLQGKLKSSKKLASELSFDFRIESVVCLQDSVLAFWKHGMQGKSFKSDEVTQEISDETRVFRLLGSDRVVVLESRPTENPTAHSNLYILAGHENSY

CN(C)S(=O)(=O)c1ccc2c(c1)/C(=C/c1cc3c([nH]1)CCCC3)C(=O)N2
residual activity (PRKD3 (human)): 90.4% | residual activity (ADRBK1 (human)): 95% | residual activity (CLK1 (human)): 82.6% | residual activity (MAPKAPK3 (human)): 100% | residual activity (STK25 (human)): 79.6% | residual activity (RPS6KA4 KD2 (human)): 104% | residual activity (MAPK10 (human)): 105% | residual activity (AURKB (human)): 11% | residual activity (NTRK1 (human)): 24.7% | residual activity (EPHA7 (human)): 91.1% | residual activity (PTK2 (human)): 33.1% | residual activity (RPS6KA5 KD2 (human)): 106% | residual activity (TAOK1 (human)): 85.8% | residual activity (YES1 (human)): 13.5% | residual activity (ERBB2 (human)): 101% | residual activity (MAP3K10 (human)): 99.1% | residual activity (ULK1 (human)): 6.13% | residual activity (MAP3K7 TAB1 (human)): 89% | residual activity (CDK2 CCNE1 (human)): 85.5% | residual activity (PIM1 (human)): 101% | residual activity (CLK4 (human)): 50.7% | residual activity (MAP4K5 (human)): 3.08% | residual activity (RPS6KA6 KD1 KD2 (human)): 67.4% | residual activity (PTK6 (human)): 56.3% | residual activity (PRKCE (human)): 94.6% | residual activity (EPHB3 (human)): 105% | residual activity (MET (human)): 92.2% | residual activity (MAPKAPK2 (human)): 101% | residual activity (PRKCG (human)): 86.8% | residual activity (PRKCB2 (human)): 92% | residual activity (PASK (human)): 95.6% | residual activity (RET (human)): 6.29% | residual activity (CHUK (human)): 115% | residual activity (IGF1R (human)): 89.5% | residual activity (MAP3K8 (human)): 94.6% | residual activity (EPHB4 (human)): 85.8% | residual activity (KDR (human)): 96.9% | residual activity (IRAK4 (human)): 57.7% | residual activity (RPS6KA1 KD1 KD2 (human)): 68.1% | residual activity [1]: 112% | residual activity (CAMK2A (human)): 61.4% | residual activity (SRPK1 (human)): 63.8%

Cc1nc(-c2ccccc2)c(-c2ccncc2)o1
residual activity (PRKD3 (human)): 94.3% | residual activity (ADRBK1 (human)): 100% | residual activity (CLK1 (human)): 105% | residual activity (MAPKAPK3 (human)): 94.7% | residual activity (STK25 (human)): 104% | residual activity (RPS6KA4 KD2 (human)): 93.7% | residual activity (MAPK10 (human)): 101% | residual activity (AURKB (human)): 97.3% | residual activity (NTRK1 (human)): 94.3% | residual activity (EPHA7 (human)): 91.5% | residual activity (PTK2 (human)): 106% | residual activity (RPS6KA5 KD2 (human)): 107% | residual activity (TAOK1 (human)): 98.5% | residual activity (YES1 (human)): 101% | residual activity (ERBB2 (human)): 105% | residual activity (MAP3K10 (human)): 101% | residual activity (ULK1 (human)): 84.6% | residual activity (MAP3K7 TAB1 (human)): 93.6% | residual activity (CDK2 CCNE1 (human)): 93.4% | residual activity (PIM1 (human)): 105% | residual activity (CLK4 (human)): 121% | residual activity (MAP4K5 (human)): 96.2% | residual activity (RPS6KA6 KD1 KD2 (human)): 115% | residual activity (PTK6 (human)): 86% | residual activity (PRKCE (human)): 103% | residual activity (EPHB3 (human)): 99.2% | residual activity (MET (human)): 102% | residual activity (MAPKAPK2 (human)): 101% | residual activity (PRKCG (human)): 101% | residual activity (PRKCB2 (human)): 88.4% | residual activity (PASK (human)): 98.1% | residual activity (RET (human)): 97.5% | residual activity (CHUK (human)): 105% | residual activity (IGF1R (human)): 99.9% | residual activity (MAP3K8 (human)): 89.9% | residual activity (EPHB4 (human)): 84.8% | residual activity (KDR (human)): 85.2% | residual activity (IRAK4 (human)): 107% | residual activity (RPS6KA1 KD1 KD2 (human)): 103% | residual activity [1]: 120% | residual activity (CAMK2A (human)): 104% | residual activity (SRPK1 (human)): 101%

Ic1cccc(CSc2nnc(-c3ccncc3)o2)c1
residual activity (PRKD3 (human)): 98.4% | residual activity (ADRBK1 (human)): 99.9% | residual activity (CLK1 (human)): 99.8% | residual activity (MAPKAPK3 (human)): 109% | residual activity (STK25 (human)): 96.2% | residual activity (RPS6KA4 KD2 (human)): 92.1% | residual activity (MAPK10 (human)): 95.7% | residual activity (AURKB (human)): 99.1% | residual activity (NTRK1 (human)): 96% | residual activity (EPHA7 (human)): 100% | residual activity (PTK2 (human)): 106% | residual activity (RPS6KA5 KD2 (human)): 97.2% | residual activity (TAOK1 (human)): 101% | residual activity (YES1 (human)): 95.7% | residual activity (ERBB2 (human)): 99.6% | residual activity (MAP3K10 (human)): 102% | residual activity (ULK1 (human)): 97.1% | residual activity (MAP3K7 TAB1 (human)): 102% | residual activity (CDK2 CCNE1 (human)): 102% | residual activity (PIM1 (human)): 102% | residual activity (CLK4 (human)): 90% | residual activity (MAP4K5 (human)): 99.5% | residual activity (RPS6KA6 KD1 KD2 (human)): 103% | residual activity (PTK6 (human)): 104% | residual activity (PRKCE (human)): 86.5% | residual activity (EPHB3 (human)): 99.7% | residual activity (MET (human)): 88.7% | residual activity (MAPKAPK2 (human)): 93.5% | residual activity (PRKCG (human)): 98.7% | residual activity (PRKCB2 (human)): 91.2% | residual activity (PASK (human)): 100% | residual activity (RET (human)): 103% | residual activity (CHUK (human)): 96.5% | residual activity (IGF1R (human)): 99.1% | residual activity (MAP3K8 (human)): 96.1% | residual activity (EPHB4 (human)): 101% | residual activity (KDR (human)): 78.1% | residual activity (IRAK4 (human)): 105% | residual activity (RPS6KA1 KD1 KD2 (human)): 98.6% | residual activity [1]: 120% | residual activity (CAMK2A (human)): 92.3% | residual activity (SRPK1 (human)): 103%

O=C1NC(=O)c2c1c1c3ccccc3[nH]c1n1cncc21
residual activity (PRKD3 (human)): 47.7% | residual activity (ADRBK1 (human)): 107% | residual activity (CLK1 (human)): 84% | residual activity (MAPKAPK3 (human)): 88.7% | residual activity (STK25 (human)): 72.5% | residual activity (RPS6KA4 KD2 (human)): 61.3% | residual activity (MAPK10 (human)): 96% | residual activity (AURKB (human)): 25.2% | residual activity (NTRK1 (human)): 89.8% | residual activity (EPHA7 (human)): 78.8% | residual activity (PTK2 (human)): 56.9% | residual activity (RPS6KA5 KD2 (human)): 87.6% | residual activity (TAOK1 (human)): 135% | residual activity (YES1 (human)): 79.9% | residual activity (ERBB2 (human)): 109% | residual activity (MAP3K10 (human)): 82.5% | residual activity (ULK1 (human)): 97.2% | residual activity (MAP3K7 TAB1 (human)): 63.4% | residual activity (CDK2 CCNE1 (human)): 66.5% | residual activity (PIM1 (human)): 1.43% | residual activity (CLK4 (human)): 99% | residual activity (MAP4K5 (human)): 13.5% | residual activity (RPS6KA6 KD1 KD2 (human)): 33.4% | residual activity (PTK6 (human)): 89% | residual activity (PRKCE (human)): 84.9% | residual activity (EPHB3 (human)): 79.7% | residual activity (MET (human)): 93.4% | residual activity (MAPKAPK2 (human)): 98.9% | residual activity (PRKCG (human)): 117% | residual activity (PRKCB2 (human)): 94.7% | residual activity (PASK (human)): 33.6% | residual activity (RET (human)): 42% | residual activity (CHUK (human)): 100% | residual activity (IGF1R (human)): 76.8% | residual activity (MAP3K8 (human)): 100% | residual activity (EPHB4 (human)): 105% | residual activity (KDR (human)): 66.6% | residual activity (IRAK4 (human)): 84.8% | residual activity (RPS6KA1 KD1 KD2 (human)): 31.1% | residual activity [1]: 88.9% | residual activity (CAMK2A (human)): 55.1% | residual activity (SRPK1 (human)): 95.4%
